According to patent US20240246980A1, “MODULATORS OF MAS-RELATED G-PROTEIN RECEPTOR D AND RELATED PRODUCTS AND METHODS” (Escient Pharmaceuticals, Inc., priority 2022, published 2024):

The molecules below were run against human MRGPRD (Homo sapiens, UniProt Q8TDS7) (assay: MRGPRD antagonist activity, IP-One HTRF assay in CHO cells stably expressing human MRGPRD (versus 100 μM β-Alanine agonist)).
Type: cell-based
How it was run: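 Cells (20,000/well, plated overnight) received antagonist and agonist in buffer with 5.7 mM Tris-HCl, 43 mM NaCl and 50 mM LiCl at pH 8. Incubation ran 1 h at 37 °C, then 1 h at room temperature, before IP-1 HTRF detection. IC50 was fitted from the HTRF ratio, and percent antagonism was taken relative to the maximum efficacy response, given as averages with SEM.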

Sequence of human MRGPRD (Q8TDS7 whole entry): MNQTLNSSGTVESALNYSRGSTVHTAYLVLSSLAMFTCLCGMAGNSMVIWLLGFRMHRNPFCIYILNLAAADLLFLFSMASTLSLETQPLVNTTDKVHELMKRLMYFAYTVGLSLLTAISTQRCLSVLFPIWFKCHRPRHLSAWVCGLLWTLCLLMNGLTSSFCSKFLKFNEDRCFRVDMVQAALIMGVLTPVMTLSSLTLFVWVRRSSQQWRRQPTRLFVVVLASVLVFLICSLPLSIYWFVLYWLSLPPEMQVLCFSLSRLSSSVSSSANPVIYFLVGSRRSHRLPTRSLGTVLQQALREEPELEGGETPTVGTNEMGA

Q: For `COc1cccc(-c2nc([C@@H]3CCCN(C(=O)Nc4cnc5ccccn45)C3)n3ccccc23)c1` [Compound 5-62], which IC50 is on record?
A: < 100 nM

Q: For `COc1cccc(-c2nc(C3CCCN(C(=O)c4ccc(C)cc4C)C3)n3ccccc23)c1` (stereo not shown) [Compound 12-8], which IC50 is on record?
A: 1000 to 3000 nM

Q: Which IC50 does the source give for `COc1cccc(-c2nc(C3CCCN(C(=O)N(C)c4ccccc4)C3)n3ccccc23)c1` (stereo not shown) [Compound 5-1] here?
A: 1000 to 3000 nM

Q: Which IC50 does the source give for `CNc1cccc(-c2nc([C@@H]3CCCN(C(=O)Nc4ccc(N(C)C)cc4)C3)n3ccccc23)c1` [Compound 10-40] here?
A: 500 to 1000 nM

Q: How did the IC50 turn out when `COc1cccc(-c2nc(C3CCCN(C(=O)Nc4ccccc4OC)C3)n3ccccc23)c1` (stereo not shown) [Compound 3-8] was run?
A: 100 to 500 nM

Q: For `COc1cccc(-c2nc([C@@H]3CCCN(C(=O)Nc4cccc(CO)c4)C3)n3ccccc23)c1` [Compound 6-1, (R)—N-(3-(hydroxymethyl)phenyl)-3-(1-(3-methoxyphenyl)imidazo[1,5-a]pyridin-3-yl)piperidine-1-carboxamide], which IC50 is on record?
A: < 100 nM

Q: For `COc1cccc(-c2nc(-c3cccc(C(=O)Nc4cccc(N(C)C)c4)c3)n3ccccc23)c1` [Compound 8-1, N-(3-(dimethylamino)phenyl)-3-(1-(3-methoxyphenyl)imidazo[1,5-a]pyridin-3-yl)benzamide], which IC50 is on record?
A: 100 to 500 nM

Q: How did the IC50 turn out when `CCOCn1cc(NC(=O)N2CCC[C@@H](c3nc(-c4cccc(OC)c4)c4ccccn34)C2)cn1` [Compound 5-49] was run?
A: < 100 nM

Q: For `COc1cccc(-c2nc([C@@H]3CCCN(C(=O)Nc4ccc(-c5ccccc5)cc4)C3)n3ccccc23)c1` [Compound 5-22], which IC50 is on record?
A: 1000 to 3000 nM

Q: With `COc1cccc(-c2nc(C3CCCN(S(=O)(=O)c4ccc(F)cc4)C3)n3ccccc23)c1` (stereo not shown) [Compound 16-3] as the molecule, how does the IC50 read?
A: > 3000 nM

Q: With `COc1cccc(-c2nc([C@@H]3CCCN(C(=O)Nc4cc(C)nn4C)C3)n3ccccc23)c1` [Compound 5-59] as the molecule, how does the IC50 read?
A: < 100 nM

Q: Which IC50 does the source give for `COc1cccc(-c2nc([C@@H]3CCCN(C(=O)Nc4ccccc4C(F)(F)F)C3)n3ccccc23)c1` [Compound 1-15] here?
A: 100 to 500 nM

Q: How did the IC50 turn out when `CN(C)c1ccc(NC(=O)N2CCC[C@@H](c3nc(-c4cccc(S(C)(=O)=O)c4)c4ccccn34)C2)cc1` [Compound 10-59] was run?
A: 1000 to 3000 nM

Q: `COc1cccc(-c2nc([C@@H]3CCCN(C(=O)Cc4cccc(F)c4)C3)n3ccccc23)c1` [Compound 12-13] was tested. Which IC50 did it give?
A: 100 to 500 nM

Q: `COc1cccc(-c2nc(C3CCCN(C(=O)Nc4cccc(N(C)C)c4)C3)n3ncccc23)c1` (stereo not shown) [Compound 5-19] was tested. Which IC50 did it give?
A: < 100 nM

Q: For `CN(C)c1ccc(NC(=O)N2CCC[C@@H](c3nc(-c4cccc(O)c4)c4ccccn34)C2)cc1` [Compound 10-5], which IC50 is on record?
A: 500 to 1000 nM

Q: For `CN(C)c1ccc(NC(=O)N2CCC[C@@H](c3nc(-c4cc5ccccc5s4)c4ccccn34)C2)cc1` [Compound 10-61], which IC50 is on record?
A: > 3000 nM

Q: Which IC50 does the source give for `COc1cccc(-c2nc([C@@H]3CCCN(C(=O)Nc4nc(C(C)C)ns4)C3)n3ccccc23)c1` [Compound 1-28] here?
A: 100 to 500 nM

Q: For `CN(C)c1ccc(NC(=O)N2CCC[C@@H](c3nc(-c4ccc(C(F)F)cc4)c4ccccn34)C2)cc1` [Compound 10-49], which IC50 is on record?
A: 100 to 500 nM

Q: `COc1cccc(-c2nc([C@@H]3CCCN(C(=O)NCCN4CCOCC4)C3)n3ccccc23)c1` [Compound 10-38] was tested. Which IC50 did it give?
A: 500 to 1000 nM

Q: For `COc1cccc(-c2nc([C@@H]3CCCN(C(=O)Nc4cccc(OC(F)(F)F)c4)C3)n3ccccc23)c1` [Compound 1-23], which IC50 is on record?
A: 500 to 1000 nM

Q: With `CN(C)c1ccc(NC(=O)N2CCC[C@@H](c3nc(-c4cnn(CC5CC5)c4)c4ccccn34)C2)cc1` [Compound 10-62] as the molecule, how does the IC50 read?
A: 1000 to 3000 nM

Q: Which IC50 does the source give for `COc1cc(OC)cc(-c2nc([C@@H]3CCCN(C(=O)Nc4ccc(N(C)C)cc4)C3)n3ccccc23)c1` [Compound 10-17] here?
A: < 100 nM

Q: With `CN(C)c1ccc(NC(=O)N2CCC[C@@H](c3nc(-c4ccccc4S(C)(=O)=O)c4ccccn34)C2)cc1` [Compound 10-66] as the molecule, how does the IC50 read?
A: > 3000 nM

Q: How did the IC50 turn out when `COc1cccc(-c2nc(C3CCCN(C(=O)Nc4ccc(C)cc4C)C3)n3ccccc23)c1` (stereo not shown) [Compound 5-5, N-(2,4-dimethylphenyl)-3-(1-(3-methoxyphenyl)imidazo[1,5-a]pyridin-3-yl)piperidine-1-carboxamide] was run?
A: 100 to 500 nM

Q: How did the IC50 turn out when `COc1cccc(-c2nc(C3CCCN(C(=O)NCC4CC4)C3)n3ccccc23)c1` (stereo not shown) [Compound 3-14] was run?
A: > 3000 nM

Q: With `COc1cccc(-c2nc([C@@H]3CCCN(C(=O)Nc4ccccc4OC)C3)n3ccccc23)c1` [Compound 5-11] as the molecule, how does the IC50 read?
A: 100 to 500 nM

Q: For `CCn1cc(CNC(=O)N2CCC[C@@H](c3nc(-c4cccc(OC)c4)c4ccccn34)C2)cn1` [Compound 5-68], which IC50 is on record?
A: < 100 nM

Q: `COc1cccc(-c2nc([C@H]3CCCN(C(=O)Nc4ccc(N(C)C)cc4)C3)n3ccccc23)c1` [Compound 1-5] was tested. Which IC50 did it give?
A: 1000 to 3000 nM

Q: `COc1cccc(-c2nc([C@@H]3CCCN(C(=O)Nc4cccc(C#N)c4)C3)n3ccccc23)c1` [Compound 1-16] was tested. Which IC50 did it give?
A: 100 to 500 nM

Q: For `COc1cccc(-c2nc(C3CCCN(C(=O)Nc4ccc(N(C)C)cc4)C3)n3ncccc23)c1` (stereo not shown) [Compound 5-20], which IC50 is on record?
A: < 100 nM

Q: For `COc1cccc(-c2nc([C@@H]3CCCN(C(=O)Nc4ccc(CO)cc4)C3)n3ccccc23)c1` [Compound 5-7], which IC50 is on record?
A: < 100 nM

Q: Which IC50 does the source give for `COc1cccc(-c2nc(C3CCCN(C(=O)Nc4ccccc4F)C3)n3cc(OC)ccc23)c1` (stereo not shown) [Compound 19-3, N-(2-fluorophenyl)-3-(6-methoxy-1-(3-methoxyphenyl)imidazo[1,5-a]pyridin-3-yl)piperidine-1-carboxamide] here?
A: 1000 to 3000 nM

Q: Which IC50 does the source give for `COc1cccc(-c2nc(C3CCCN(C(=O)c4ccc(OC)cc4C)C3)n3ccccc23)c1` (stereo not shown) [Compound 12-9] here?
A: 500 to 1000 nM

Q: With `COc1cccc(-c2nc([C@@H]3CCCN(S(=O)(=O)c4cccc(F)c4)C3)n3ccccc23)c1` [Compound 16-7] as the molecule, how does the IC50 read?
A: 100 to 500 nM

Q: `CCc1csc(NC(=O)N2CCC[C@@H](c3nc(-c4cccc(OC)c4)c4ccccn34)C2)n1` [Compound 5-54] was tested. Which IC50 did it give?
A: 500 to 1000 nM

Q: With `COc1cccc(-c2nc([C@@H]3CCCN(C(=O)NCc4ccccc4)C3)n3ccccc23)c1` [Compound 5-60] as the molecule, how does the IC50 read?
A: < 100 nM

Q: With `COc1cccc(-c2nc(C3CCCN(C(=O)Nc4ccc(OC)cc4C)C3)n3ccccc23)c1` (stereo not shown) [Compound 3-12] as the molecule, how does the IC50 read?
A: 100 to 500 nM

Q: For `O=C(Nc1ccccc1F)N1CCCC(c2nc(-c3ccccc3F)c3ccccn23)C1` (stereo not shown) [Compound 11-2], which IC50 is on record?
A: 1000 to 3000 nM

Q: For `CCc1ccccc1-c1nc([C@@H]2CCCN(C(=O)Nc3ccc(N(C)C)cc3)C2)n2ccccc12` [Compound 10-21], which IC50 is on record?
A: 100 to 500 nM

Q: `CCOc1cccc(-c2nc([C@@H]3CCCN(C(=O)Nc4ccc(N(C)C)cc4)C3)n3ccccc23)c1` [Compound 10-4] was tested. Which IC50 did it give?
A: < 100 nM

Q: With `COc1cccc(-c2nc(C3CCCN(C(=O)Nc4ccccc4)C3)n3ccccc23)c1` (stereo not shown) [Compound 3-6] as the molecule, how does the IC50 read?
A: 100 to 500 nM

Q: Which IC50 does the source give for `COc1cccc(-c2nn(-c3cccc(C(=O)Nc4cccc(N(C)C)c4)c3)c3ncccc23)c1` [Compound 24-2] here?
A: 500 to 1000 nM

Q: Which IC50 does the source give for `COc1cccc(-c2nc([C@@H]3CCCN(C(=O)Nc4cccc(C)c4)C3)n3ccccc23)c1` [Compound 1-13] here?
A: 100 to 500 nM

Q: With `COc1cccc(-c2nc([C@@H]3CCCN(C(=O)Nc4ccccc4CO)C3)n3ccccc23)c1` [Compound 5-28] as the molecule, how does the IC50 read?
A: < 100 nM

Q: How did the IC50 turn out when `COc1cccc(-c2nc([C@@H]3CCCN(C(=O)Nc4ccn(C)n4)C3)n3ccccc23)c1` [Compound 5-44] was run?
A: < 100 nM

Q: How did the IC50 turn out when `CNc1ccc(NC(=O)N2CCC[C@@H](c3nc(-c4cccc(OC)c4)c4ccccn34)C2)cc1` [Compound 7-1, (R)-3-(1-(3-methoxyphenyl)imidazo[1,5-a]pyridin-3-yl)-N-(4-(methylamino)phenyl)piperidine-1-carboxamide] was run?
A: < 100 nM

Q: How did the IC50 turn out when `COc1cccc(-c2nc(C3CCCN(C(=O)Nc4ccc(C)c(C)c4)C3)n3ccccc23)c1` (stereo not shown) [Compound 3-23] was run?
A: 100 to 500 nM

Q: `COC(=O)c1cccc(-c2nc([C@@H]3CCCN(C(=O)Nc4ccc(N(C)C)cc4)C3)n3ccccc23)c1` [Compound 10-70] was tested. Which IC50 did it give?
A: < 100 nM

Q: How did the IC50 turn out when `CN(C)c1ccc(NC(=O)N2CCC[C@@H](c3nc(-c4nn(C)c5ccccc45)c4ccccn34)C2)cc1` [Compound 10-68] was run?
A: 500 to 1000 nM

Q: `COc1cccc(-c2nc([C@@H]3CCN(C(=O)Nc4ccccc4F)C3)n3ccccc23)c1` [Compound 21-1, (R)—N-(2-fluorophenyl)-3-(1-(3-methoxyphenyl)imidazo[1,5-a]pyridin-3-yl)pyrrolidine-1-carboxamide] was tested. Which IC50 did it give?
A: 500 to 1000 nM

Q: How did the IC50 turn out when `COc1cccc(-c2nc(C3CCCN3C(=O)Nc3ccccc3F)n3ccccc23)c1` (stereo not shown) [Compound 22-1, N-(2-fluorophenyl)-2-(1-(3-methoxyphenyl)imidazo[1,5-a]pyridin-3-yl)pyrrolidine-1-carboxamide] was run?
A: 1000 to 3000 nM

Q: For `Cc1cccc(-c2nc(C3CCCN(C(=O)Nc4ccccc4F)C3)n3ccccc23)c1` (stereo not shown) [Compound 11-4], which IC50 is on record?
A: > 3000 nM

Q: How did the IC50 turn out when `COc1cccc(-c2nc(C3CCCN(C(=O)N(C)c4cccc(F)c4)C3)n3ccccc23)c1` (stereo not shown) [Compound 1-4] was run?
A: 500 to 1000 nM

Q: `COc1cccc(-c2nc([C@@H]3CCCN(C(=O)Nc4ccc(F)cc4)C3)n3ccccc23)c1` [Compound 5-10] was tested. Which IC50 did it give?
A: 100 to 500 nM

Q: How did the IC50 turn out when `COc1cccc(-c2nc([C@@H]3CCCN(C(=O)NCc4nccs4)C3)n3ccccc23)c1` [Compound 5-45] was run?
A: < 100 nM

Q: With `COc1cccc(-c2nc([C@H]3CCN(C(=O)Nc4ccccc4F)C3)n3ccccc23)c1` [Compound 21-2] as the molecule, how does the IC50 read?
A: 1000 to 3000 nM

Q: With `COc1cccc(-c2nc(C3CCCN(C(=O)Nc4cccc(C#N)c4)C3)n3ccccc23)c1` (stereo not shown) [Compound 3-21] as the molecule, how does the IC50 read?
A: 100 to 500 nM

Q: How did the IC50 turn out when `CN(C)c1ccc(NC(=O)N2CCC[C@@H](c3nc(-c4cccc(C(F)(F)F)c4)c4ccccn34)C2)cc1` [Compound 10-11] was run?
A: 500 to 1000 nM

Q: `COc1cccc(-c2nc([C@@H]3CCCN(C(=O)Nc4ccc(C)cc4)C3)n3ccccc23)c1` [Compound 1-18] was tested. Which IC50 did it give?
A: 100 to 500 nM

Q: For `CCOc1ccc(NC(=O)N2CCC[C@@H](c3nc(-c4cccc(OC)c4)c4ccccn34)C2)cc1` [Compound 1-25], which IC50 is on record?
A: < 100 nM

Q: How did the IC50 turn out when `COc1cccc(-c2nc([C@@H]3CCCN(C(=O)Nc4ccc5c(c4)CCC5)C3)n3ccccc23)c1` [Compound 5-32] was run?
A: 100 to 500 nM

Q: Which IC50 does the source give for `COc1cccc(-c2nc(C3CCCN(C(=O)Nc4cccc(OC)c4C)C3)n3ccccc23)c1` (stereo not shown) [Compound 3-26] here?
A: 100 to 500 nM

Q: `CN(C)c1ccc(NC(=O)N2CCC[C@@H](c3nc(-c4cccc(-c5ccccc5)c4)c4ccccn34)C2)cc1` [Compound 10-10] was tested. Which IC50 did it give?
A: > 3000 nM
